Experimental data from patent US12064427B2, “Pharmaceutical compositions comprising (S)-4-(4-(4-(((2-(2,6-dioxopiperidin-3-yl)-1-oxoisoindolin-4-yl)oxy)methyl)benzyl)piperazin-1-yl)-3-fluorobenzonitrile and methods of using the same” (Celgene Corporation, priority 2019, dated 2024).
One block for each compound: values may come before it.

Key:
α1 adrenergic receptor = α1 adrenergic receptor binding at 10 μM ([3H]prazosin, cerebral cortex membranes); parameters: species or system rat; settings: inhibition of control radioligand binding
Description: (§1) α1 Adrenergic and Dopamine D2 Receptors. Methods: Binding and functional assays for al adrenergic and dopamine D2 receptors were performed by Eurofins Cerep according to their methods.
α1 Adrenergic Receptor. Binding at 10 μM. The binding assay evaluated the affinity of test article for the non-selective al adrenergic receptor in rat cerebral cortex. Membrane homogenates of cerebral cortex were incubated in duplicate for 60 minutes at room temperature with 0.25 nM [^3H]prazosin in the absence or presence of test articles at 10 μM. After the incubation period, samples were filtered through glass fiber filters, the filters dried and then counted for radioactivity using a scintillation counter. Results are expressed as mean percent inhibition of control radioligand binding.

dopamine D2S receptor = target: T1, dopamine D2S receptor (Homo sapiens, UniProt P14416); experiment: Dopamine D2S receptor binding at 10 μM (transfected HEK-293 membranes); settings: inhibition of control radioligand binding
T1 construct: host or cells: HEK-293
T1 sequence (P14416 1-414 isoform P14416-2): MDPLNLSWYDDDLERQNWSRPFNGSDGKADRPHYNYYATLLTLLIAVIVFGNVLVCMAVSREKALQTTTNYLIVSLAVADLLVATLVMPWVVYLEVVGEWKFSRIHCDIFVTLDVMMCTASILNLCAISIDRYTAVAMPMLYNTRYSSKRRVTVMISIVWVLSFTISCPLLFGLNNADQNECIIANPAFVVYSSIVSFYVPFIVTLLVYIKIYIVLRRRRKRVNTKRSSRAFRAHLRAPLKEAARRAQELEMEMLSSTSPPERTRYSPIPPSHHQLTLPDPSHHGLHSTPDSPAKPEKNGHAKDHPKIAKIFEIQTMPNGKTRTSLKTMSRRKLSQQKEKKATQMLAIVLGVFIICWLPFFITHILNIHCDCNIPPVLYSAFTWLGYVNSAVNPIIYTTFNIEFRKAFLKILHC
Description: as §1
Dopamine D2 Receptor. Binding at 10 μM. The binding assay evaluated the affinity of test articles for the dopamine D2 receptor in transfected human embryonic kidney (HEK)-293 cells. For determining the binding in the D2S receptor assay, test article was incubated with 0.3 nM [^3H] methylspiperone or 1 nM [^3H] 7-hydroxy-2-N,N-dipropylaminotetralin (7-OH-DPAT). [^3H] Methylspiperone at 0.3 nM also was used as control ligand in the D2L binding assay. Cell membrane homogenates were incubated in duplicate at room temperature for 60 minutes with ligand in the absence or presence of test articles at 10 μM. After the incubation period, samples were filtered through glass fiber filters, the filters dried and then counted for radioactivity using a scintillation counter. Results are expressed as mean percent inhibition of control radioligand binding.

[1] = Two-stage dissolution (precipitation risk) of 2 mg BIC; format: physicochemical; settings: based on two-stage dissolution findings
Description: The precipitation risk of prototype BIC formulations were studied by a two-stage method (Stage 1 under sink condition and Stage 2 under non-sink condition) for high strength (2 mg).
A two-stage dissolution study was carried out on prototype formulations, wherein the dissolution medium for Stage 1 was 0.01N HCl. […] Based on the two-stage dissolution findings the precipitation risk is considered low for Compound 1.

NCI-H929 = experiment: Cell proliferation assay (CellTitre-Glo, 120 h); settings: Homo sapiens, NCI-H929, 120 h, read-out: NCI-H929 120 h IC50
NCI-H929-1051 = experiment: Cell proliferation assay (CellTitre-Glo, 120 h); settings: Homo sapiens, read-out: NCI-H929.1051 120 h IC50
OPM2 = experiment: Cell proliferation assay (CellTitre-Glo, 120 h); settings: Homo sapiens, OPM-2, 120 h, read-out: OPM-2 120 h IC50
OPM2-P10 = experiment: Cell proliferation assay (CellTitre-Glo, 120 h); settings: Homo sapiens, read-out: OPM-2.P10 120 h IC50
MM cell lines = experiment: Cell proliferation assay (CellTitre-Glo, 120 h), four lines together; settings: Homo sapiens, read-out: antiproliferative IC50 values
Water activity testing = format: physicochemical
Text: Water activity is a measure of how tightly bound the water is within a substance. To measure water activity, a sample is placed in a sealed vessel which is allowed to reach equilibrium. The final relative humidity (RH) in the vessel is reported as a fraction called “Aw”. Pure water has an Aw of 1.00. […] HygroLab 3 Bench Top Indicator was used to determine water activity testing. Before testing the samples, the equipment is calibrated at different relative humidity levels using RH standards (0% RH, 35% RH, and 80% RH) and at different temperatures to ensure accuracy of the probes. A known amount of sample is sealed inside the sample cell by twisting the cap in downward direction. The starting temperature is recorded before beginning the test. When the change in temperature before and after the test is not more than 0.5° C. record Aw.

[2] = Binary drug-excipient compatibility study; settings: binary mixture with Compound 1, open dish, 50° C./75% RH, 3 and 6 weeks vs 5° C. control
[3] = acidifiers evaluated; cited from earlier work

Adrenergic α1 % Inh. (@10 μM) (α1 adrenergic receptor): 102%
SMILES: O=C1CCC(N2Cc3c(OCc4ccc(CN5CCN(c6ccc(F)cc6F)CC5)cc4)cccc3C2=O)C(=O)N1 (racemic) [Compound A, 3-(4-((4-((4-(2,4-difluorophenyl)piperazin-1-yl)methyl)benzyl)oxy)-1-oxoisoindolin-2-yl)piperidine-2,6-dione]

SMILES: N#Cc1ccc(N2CCN(Cc3ccc(COc4cccc5c4CN([C@H]4CCC(=O)NC4=O)C5=O)cc3)CC2)c(F)c1 [Compound 1, (S)-4-(4-(4-(((2-(2,6-dioxopiperidin-3-yl)-1-oxoisoindolin-4-yl)oxy)methyl)benzyl)piperazin-1-yl)-3-fluorobenzonitrile]
Dopamine D2S % Inh. (@10 μM) (dopamine D2S receptor): 55/52
precipitation risk [1]: low
IC50 (NCI-H929): 0.07 nM
IC50 (NCI-H929-1051): 1 nM
IC50 (OPM2): 0.07 nM
IC50 (OPM2-P10): 4.3 nM
IC50 (MM cell lines): 0.07 to 4.3 nM

SMILES: N#Cc1ccc(N2CCN(Cc3ccc(COc4cccc5c4CN([C@H]4CCC(=O)NC4=O)C5=O)cc3)CC2)c(F)c1 [Form K of Compound 1, (S)-4-(4-(4-(((2-(2,6-dioxopiperidin-3-yl)-1-oxoisoindolin-4-yl)oxy)methyl)benzyl)piperazin-1-yl)-3-fluorobenzonitrile]
RH at which Form K converts to an anhydrous form (Water activity testing): < 20%

SMILES: OC[C@H]1O[C@@H](O[C@H]2[C@H](O)[C@@H](O)C(O)O[C@@H]2CO)[C@H](O)[C@@H](O)[C@H]1O (stereo partly shown) [Lactose]
compatibility of excipient with the drug substance (chemical degradation, chiral purity) [2]: compatible with little decrease in chiral purity

SMILES: OC[C@@H](O)[C@@H](O)[C@H](O)[C@H](O)CO [Mannitol]
compatibility of excipient with the drug substance (chemical degradation, chiral purity) [2]: compatible, with some hydrolytic chemical degradation

compatibility of excipient with the drug substance (chemical degradation, chiral purity) [2]: chemically compatible
SMILES: CCCCCCCCCCCCCCCCCC(=O)O [Stearic Acid]

compatibility of excipient with the drug substance (chemical degradation, chiral purity) [2]: more compatible acidifier
SMILES: O=C(O)/C=C/C(=O)O [fumaric acid]

SMILES: CCCCCCCCCCCCOS(=O)(=O)[O-].[Na+] [sodium lauryl sulfate (SLS), sodium lauryl sulfate]
compatibility of excipient with the drug substance (chemical degradation, chiral purity) [2]: loss of chiral purity and increase in chemical degradation chiefly by hydrolysis

compatibility of excipient with the drug substance (chemical degradation, chiral purity) [2]: chemically incompatible
SMILES: O=C(O)CCC(=O)O [succinic acid]
pKa [3]: 4.18
